Data: patent US9145398B2, “Methods of treating CXCR4-expressing cancers” (University of Louisville Research Foundation, Inc., priority 2010, dated 2015)
“Also recorded” adds a separate entry of the source.

Experiments:
hCXCR4-GFP [1] = experiment: Intracellular calcium mobilization assay, hCXCR4-GFP expressing 300.19 cells, CXCL12; assay type: cell-based, human; details: 50 μM test compound
Experimental: (§1) Intracellular Calcium Mobilization Assay Method: The intracellular calcium mobilization assay used 300.19 cells which stably expressed hCXCR4-GFP, as described previously in Pello et al. (2008). Cells were loaded with INDO-I and then pretreated with the 50 μM of the test compound for 60 seconds prior to stimulation of intracellular calcium mobilization with an optimized concentration of CXCL12. […] The value Δ florescence is the difference between (a) the fluorescence ratio from cells before exposure to CXCL12 at its optimized concentration and (b) the fluorescence ratio from cells following stimulation with the optimized concentration of CXCL12. Decreases in Δ florescence correspond to decreases in intracellular calcium mobilization, and therefore, decreased signaling. As CXCL12 concentration was optimized for each test compound, results are presented as normalized Δ florescence which is Δ fluorescence divided by the fluorescence ratio of optimized CXCL12-only stimulation. In some instances, the IC50 concentration (concentration at which intracellular calcium mobilization is reduced to 50% of the Δ fluorescence of the CXCL12 plus DMSO control) of the test compounds was determined. All assays were performed a minimum of four times; error bars represent the standard deviation of the mean.

BLT1 [2] = target: T1, BLT1 (Homo sapiens, UniProt Q15722); experiment: Intracellular calcium mobilization assay, cells expressing BLT1, LTB4; assay type: cell-based; details: LTB4-mediated
Experimental: as §1
At 50 μM test compound concentrations in BLT1-expressing cells, I-44 (0.040) and I-46 (0.017) inhibited intracellular calcium mobilization.

300.19 cells = experiment: Cytotoxicity assay, propidium iodide based flow cytometry; assay type: cell-based; details: for cytotoxicity, percentage of cells staining positive for PI: 50 μM test compound; for cytotoxicity in dose response below 50 μM: 5 μM and 1 μM tested
Experimental: Cytotoxicity Assay Method: To determine the potential for test compound cytotoxicity to influence cell intracellular calcium mobilization and chemotaxis, cell cytotoxicity was assessed using propidium iodide (PI) based flow cytometry. Propidium iodine is impermeable to intact cell membranes and thus its lack of intercalation into DNA (which increases PI fluorescence) is a positive indicator of cell viability. Cytotoxicity values are presented as percentage of cells staining positive for PI. Lower values of fluorescence indicate less cytotoxicity. All assays were performed a minimum of four times; error bars represent the standard deviation of the mean.

hCXCR4-GFP [3] = target: T2, hCXCR4-GFP (Homo sapiens, UniProt P61073); experiment: Intracellular calcium mobilization assay, hCXCR4-GFP expressing 300.19 cells, CXCL12; assay type: cell-based; set-up: IC50 of intracellular calcium mobilization, CXCR4; other: CXCL12-mediated; other: 50 μM test compound; normalized Δ fluorescence (CXCR4, intracellular calcium mobilization); other: 50 μM test compound, 60 seconds pretreatm; details: for IC50: CXCL12-mediated, read-out: IC50 of intracellular calcium mobilization, CXCR4
Experimental: as §1

hCXCR4-GFP [4] = target: T2, hCXCR4-GFP; experiment: Chemotaxis assay, hCXCR4-GFP expressing 300.19 cells, CXCL12; assay type: cell-based; details: for chemotaxis index (CXCR4-mediated): 50 μM test compound plus optimized CXCL12, normalized to CXCL12 plus DMSO control
Experimental: (§2) Cells were suspended in chemotaxis buffer (RPMI 1640, 1% fetal bovine serum, 1 mM HEPES) at a concentration of 1×10^7 cells per ml. Cell chemotaxis was determined by examining the migration of the 300.19 cells in response to administration of 50 μM test compound plus an optimized concentration of CXCL12 using a chemotaxis assay that was previously described in Basu et al. (Basu et al., Critical role for polar residues in coupling leukotriene B4 binding to signal transduction in BLT1, J. Biol. Chem. (2007) Vol. 282, pp. 10005-17). 100 μL of 300.19 cells from the above cell suspension were placed in the upper chamber of a Transwell support (Corning Costar, Cambridge, Mass.) and were separated by a 5 micron filter from a bottom chamber containing 50 μM test compound plus the optimized concentration of CXCL12 in a final bottom chamber volume of 600 μl. After 3 h of incubation at 37° C. in 5% CO2, the upper chamber was removed and cells in the lower chamber were counted in a Bürker chamber. Cell counts for all samples were normalized to a CXCL12 plus DMSO control and results are reported using this normalized measure, referred to herein as the chemotaxis index. In some instances, the IC50 concentration (i.e., the concentration at which the chemotaxis index is reduced to 50% of the chemotaxis index of the CXCL12 plus DMSO control) of the test compounds was determined. All assays were performed a minimum of four times; error bars represent the standard deviation of the mean.

TC-1 tumor cells = assay type: in vivo; details: 5 mg/kg i.p. every day for 21 days; versus PBS or Vehicle controls
Description: Development of Animal Model for CXCR4 Dependent Cancer Metastasis in Lungs: To establish a CXCR4 dependent lung tumor metastasis model, we first screened several cancer cell lines that are known to metastasize to lungs in mice models to determine which cancer cell lines endogenously express CXCR4 receptor. The mice cell lines screened were Lewis lung carcinoma, B16F10 melanoma, and TC-1 cervical carcinoma. Mice cell lines were screened using flow cytometry-based surface receptor staining using a fluorochrome labeled antibody to mouse CXCR4 receptor. […] The TC-1 cell line was generated by transfection of murine lung squamous epithelial cells by Human pappillomavirus (HPV) oncogenes E6, E7, and activated Ras.
5 mg/kg body weight of AMD3100, I-28, I-36, or I-38 were also injected at the same dose intra-peritoneal (i.p.) every day for 21 days starting from the day before the tumor cell injection. Mice were sacrificed and lungs were perfused and collected on day 21 post tumor challenge. Lungs were stored in formalin for 16 hrs and then transferred into 70% ethanol until the lung lobes became lucid. All five lung lobes were separated. Tumors were counted using a magnifying glass or a microscope. Tumor sizes were measured using a digital caliper. The total number of tumors counted in all five lung lobes of an individual mouse is reported as the tumor incidence. Mean tumor sizes were added together to calculate cumulative tumor size, which is reported as the tumor burden for each mouse.

HS27 cells = experiment: MTT cell proliferation assay, HS27; assay type: cell-based, human; details: 4 days, normal fibroblast cell line
Experimental: (§3) To determine the potential for compounds to impact the proliferation of cells, cell growth was assessed capacity using the 3-(4,5-dimethylthiazol-2-yl)-2,5-diphenyltetrazolium bromide (MTT) assay. The effect of these compounds was determined for four cell lines: HS27, a “normal” fibroblast cell line; MCF7, an estrogen-dependant non-metastatic breast cancer cell line; MDA-MB-231, an estrogen-independent metastatic breast cancer cell line; and A549, a lung cancer cell line. Cells were left untreated, treated with 12.5 mM DMSO, or treated with varying concentrations of four compounds, (I-9, I-25, I-36, and I-37), then incubated for 4 days, before analysis. Absorbance at 490 nm represents proliferating cells. For samples using compounds, these values are normalized to untreated samples.

MCF7 cells = experiment: MTT cell proliferation assay, MCF7; assay type: cell-based, human; details: 4 days
Experimental: as §3

MDA-MB-231 cells = experiment: MTT cell proliferation assay, MDA-MB-231; assay type: cell-based, human; details: 4 days; for IC50: Homo sapiens, MDA-MB-231, 96 h
Experimental: as §3

A549 cells = experiment: MTT cell proliferation assay, A549; assay type: cell-based, human; details: 4 days; for IC50: Homo sapiens, A549, 96 h
Experimental: as §3

[5] = Test for toxicity in mice; assay type: in vivo; details: i.p. 5 mg/kg, then 20 or 40 mg/kg two days later; observed over 3 weeks
Experimental: Test for Toxicity: Mice were treated by intra-peritoneal injections of three of compounds I-28, I-36, and I-38 at the first dose of 5 mg/kg of body weight, followed by a second injection of either 20 mg/kg of body weight or 40 mg/kg of body weight two days later.

BLT1 [6] = target: T1, BLT1; experiment: Chemotaxis assay, cells expressing BLT1, LTB4; assay type: cell-based; details: 50 μM test compound, LTB4-induced
Experimental: as §2
To examine specificity of some of the compounds for CXCR4, their activity was tested against a non-family member class A G protein-coupled receptor, BLT1. […] I-38 and I-43 inhibited BLT1-mediated chemotaxis (0.23) and (0.045) to about the same extent as CXCR4-mediated chemotaxis (0.21) and (0.064), respectively.

hCXCR4-GFP [7] = experiment: Chemotaxis assay, hCXCR4-GFP expressing 300.19 cells, CXCL12; assay type: cell-based, human
Experimental: as §2

T2 sequence (P61073 whole entry): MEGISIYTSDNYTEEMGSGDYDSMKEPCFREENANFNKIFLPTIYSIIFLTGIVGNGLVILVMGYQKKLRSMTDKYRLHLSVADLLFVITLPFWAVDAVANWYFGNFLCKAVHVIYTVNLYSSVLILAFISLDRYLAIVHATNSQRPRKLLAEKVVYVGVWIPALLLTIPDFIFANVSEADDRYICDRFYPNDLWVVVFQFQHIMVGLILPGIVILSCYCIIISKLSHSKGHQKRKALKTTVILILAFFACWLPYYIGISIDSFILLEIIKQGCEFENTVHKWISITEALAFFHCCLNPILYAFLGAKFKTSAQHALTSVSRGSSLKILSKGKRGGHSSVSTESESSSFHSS
T1 sequence (Q15722 whole entry, species assumed): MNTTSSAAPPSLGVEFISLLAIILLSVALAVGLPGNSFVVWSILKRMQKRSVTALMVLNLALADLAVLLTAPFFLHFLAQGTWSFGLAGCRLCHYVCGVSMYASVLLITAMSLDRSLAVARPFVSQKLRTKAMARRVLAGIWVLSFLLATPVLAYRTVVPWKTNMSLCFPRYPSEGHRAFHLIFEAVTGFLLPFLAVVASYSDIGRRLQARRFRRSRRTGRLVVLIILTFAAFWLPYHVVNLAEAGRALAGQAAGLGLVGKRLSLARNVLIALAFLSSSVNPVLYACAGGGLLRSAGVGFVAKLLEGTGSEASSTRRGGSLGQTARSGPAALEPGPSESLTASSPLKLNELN

Compound: C(=C\N1CCCC1)/c1nnnn1-c1ccc2ccccc2c1 [Compound I-2, 1-(2-naphthyl)-5-(2-pyrrolidin-1-ylvinyl)tetrazole]
- difference between CXCR4- and BLT1-mediated intracellular calcium mobilization (hCXCR4-GFP [1]): no significant difference
- IC50 (BLT1 [2]): 40 µM
- cytotoxicity at 10 μM (300.19 cells; 10 μM): retained cytotoxicity
- cytotoxicity, percentage of cells staining positive for PI (300.19 cells): 63.5%
- IC50 (hCXCR4-GFP [3]): 45 µM

Compound: c1cc(CN2CCCNCCNCCCNCC2)ccc1CN1CCCNCCNCCCNCC1 [AMD3100, reference compound]
- inhibition of chemotaxis (hCXCR4-GFP [4]; concentrations ranging from 50 nM to 100 nM, data not shown): completely inhibited
- TC-1 metastatic tumor incidence and burden in lungs (TC-1 tumor cells): reduced mice TC-1 metastatic tumor incidence and burden in lungs; also recorded: metastasis of TC-1 was significantly inhibited
- normalized Δ fluorescence (CXCR4, intracellular calcium mobilization) (hCXCR4-GFP [3]; 50 μM test compound, 60 seconds pretreatment, optimized CXCL12 (AMD3100 concentration not given)): 0.51

Compound: COc1cc(NCCCC(C)Nc2ccnc3cc4ccccc4cc23)c2ncccc2c1 (stereo not shown) [Compound I-9, N-(5-(6-methoxyquinolin-8-ylamino)pentan-2-yl)benzo[g]quinolin-4-amine]
- difference between CXCR4- and BLT1-mediated intracellular calcium mobilization (hCXCR4-GFP [1]): no significant difference
- IC50 (BLT1 [2]): 20 µM
- cytotoxicity, percentage of cells staining positive for PI (300.19 cells): 81.2%
- cytotoxicity in dose response below 50 μM (300.19 cells; 10 μM): no cytotoxicity beyond the initial 50 μM screening concentration
- proliferation inhibition, HS27 (in words) (HS27 cells): consistently inhibited cell proliferation even at concentrations nearing 1 μM
- IC50 (MCF7 cells; Homo sapiens, MCF7, 96 h): 5 µM
- IC50 (MDA-MB-231 cells): 5 µM
- IC50 (A549 cells): 7.5 µM
- IC50 (hCXCR4-GFP [3]): 1 µM

Compound: Cc1ccc(N2C(=O)/C(=C/Nc3ccc(S(=O)(=O)Nc4ccc(O)cc4)cc3)c3ccccc3C2=O)cc1C [Compound I-28, 4-[[2-(3,4-dimethylphenyl)-1,3-dioxo-4-isoquinolylidene]methylamino]-N-(4-hydroxyphenyl)-benzenesulfonamide]
- difference between CXCR4- and BLT1-mediated intracellular calcium mobilization (hCXCR4-GFP [1]): no significant difference
- IC50 (BLT1 [2]): 22.5 µM
- apparent toxicity (loss of body weight, signs of physiological distress) [5]: did not induce any apparent toxicity
- TC-1 metastatic tumor incidence and burden in lungs (TC-1 tumor cells): reduced mice TC-1 metastatic tumor incidence and burden in lungs
- IC50 (hCXCR4-GFP [3]): 10 µM

Compound: CN1C/C(=C/c2cccnc2)C(=O)/C(=C/c2cccnc2)C1 [Compound I-43, (3E,5Z)-1-methyl-3,5-bis((pyridin-3-yl)methylene)piperidin-4-one]
- chemotaxis index (CXCR4-mediated) (hCXCR4-GFP [4]): 0.064
- IC50 (hCXCR4-GFP [4]; hCXCR4-GFP 300.19 cells, CXCL12): 20 µM
- chemotaxis index (BLT1-mediated) (BLT1 [6]): 0.045

Compound: Cc1ccc(NCC(=O)Nc2ncc(Cc3cccc(C(F)(F)F)c3)s2)cc1C [Compound I-37, 2-(3,4-dimethylphenyl)amino-N-[5-[[3-(trifluoromethyl)phenyl]methyl]thiazol-2-yl]-acetamide]
- proliferation inhibition, HS27 (in words) (HS27 cells): did not inhibit proliferation for any tested cell line
- proliferation inhibition, MCF7 (in words) (MCF7 cells): did not inhibit proliferation for any tested cell line
- proliferation inhibition, MDA-MB-231 (in words) (MDA-MB-231 cells): did not inhibit proliferation for any tested cell line
- proliferation inhibition, A549 (in words) (A549 cells): did not inhibit proliferation for any tested cell line

Compound: CN(C)c1cccc(Nc2nc3ccccc3nc2NS(=O)(=O)c2ccc([N+](=O)[O-])cc2)c1 [Compound I-25, N-[3-(3-dimethylaminophenyl)aminoquinoxalin-2-yl]-4-nitro-benzenesulfonamide]
- chemotaxis index (CXCR4-mediated) (hCXCR4-GFP [4]): 0.030
- fold greater inhibition of CXCR4-mediated than BLT1-mediated chemotaxis (hCXCR4-GFP [7]; from chemotaxis indices at 50 μM): 12 fold
- chemotaxis index (BLT1-mediated) (BLT1 [6]): 0.38
- IC50 (BLT1 [2]): 40 µM
- cytotoxicity, percentage of cells staining positive for PI (300.19 cells): 23.4%
- cytotoxicity in dose response below 50 μM (300.19 cells; 10 μM): no cytotoxicity beyond the initial 50 μM screening concentration
- proliferation inhibition, HS27 (in words) (HS27 cells): marginal proliferation inhibition at higher concentrations
- proliferation inhibition, MCF7 (in words) (MCF7 cells): only marginally inhibited cell proliferation of MCF7 cells at high concentrations
- IC50 (MDA-MB-231 cells): 10 µM
- IC50 (A549 cells): 10 µM
- IC50 (hCXCR4-GFP [3]): 1 µM

Compound: CCc1ccc(OCCNc2cc(N3CCNC(C)C3)ccc2[N+](=O)[O-])cc1 (stereo not shown) [Compound I-4, N-[2-(4-ethylphenoxy)ethyl]-5-(3-methylpiperazin-1-yl)-2-nitro-aniline]
- difference between CXCR4- and BLT1-mediated chemotaxis (hCXCR4-GFP [7]; 50 μM test compound): small differences
- difference between CXCR4- and BLT1-mediated intracellular calcium mobilization (hCXCR4-GFP [1]): no significant difference
- IC50 (BLT1 [2]): 40 µM
- cytotoxicity at 5 μM (300.19 cells; 5 μM): maintained cytotoxicity
- cytotoxicity, percentage of cells staining positive for PI (300.19 cells): 98.8%
- IC50 (hCXCR4-GFP [3]): 45 µM
